Test results taken from patent publication US11752125B2, “Anti-neuroinflammatory and protective compounds in Achillea fragrantissima” (THE STATE OF ISRAEL MINISTRY OF AGRICULTURE & RURAL …, priority 2013, dated 2023).

Columns and labels:
[1] = test system: microglial cells; experiment: Cytotoxicity in LPS-activated microglial cells (LDH); format: cell-based, rat; settings: LPS 4.5 ng/mL, 20 h
Protocol: Cell viability was determined using a commercial colorimetric assay (Roche Applied Science, Germany) which measures Lactate Dehydrogenase (LDH) activity released from the cytosol of damaged cells into the incubation medium. The absorbance was measured at 492 nm in a plate reader. The percentage of cytotoxicity was calculated according to the following equation, where the LDH activity released from the untreated cells is the spontaneous LDH release, and the maximum releasable LDH in the cells is the:
In FIG. 21 A, microglial cells were treated with different concentrations of achillolide A, dexamethasone or memantine (as reference drugs) and were concomitantly activated by LPS (4.5 ng/mL) for 20 h. Cell conditioned supernatants were collected, and the levels of NO were measured using Griess reaction. Cytotoxicity was measured using the LDH method (FIG. 21B). Values represent the mean±SEM (n=12 for each treatment). ** p<0.01; ***p<0.001 relative to cells that were treated to LPS only.

[2] = test system: LPS-activated splenocytes; experiment: Cytokine secretion from LPS-activated splenocytes (ELISA); format: cell-based, mouse; settings: LPS 5 μg/mL; 24 h (IL-2) or 48 hr
Protocol: 1. Sacrifice Balb/c mice by decapitation. 2. Remove spleens from mice, pool, and squeeze to single cell suspension 3. Lyse red blood cells using lysis buffer, and wash cells several times. 4. Plate splenocytes (5×10^6 cells/well) on a 24-well tissue culture plate, in DMEM containing 10% FBS, 2 mM glutamine, 100 U/ml penicillin and 100 micrograms/mL streptomycin; 5. Treat cells with freshly diluted AcA of the invention; 6. Activate […] with lipopolysaccharide (LPS, 5 micrograms/mL); 7. Collect conditioned media for the measurement of cytokine levels; IL-2, after 24 h; IFNγ, TNF-α, IL-10, IL-12 and IL-6 after 48 hr. 8. Measure the levels of cytokines by ELISA; Ten naive Balb/c mice were sacrificed by decapitation. […] Spleens were removed from mice, pooled and squeezed to single cell suspension. Red blood cells were lysed using lysis buffer, cells were washed several times, and were plated (5×10^6 cells/well/ml) on a 24-well tissue culture plate. Cells were then stimulated with LPS (5 μg/mL) in the presence or absence of achillolide A. Conditioned media of the cells were collected for analysis: IL-2, after 24 h; IFNγ, TNF-α, IL-10, IL-12 and IL-6 after 48 hr. Cytokine levels were measured by ELISA in supernatants collected at the indicated time points. Data represent the mean±SEM from two different experiments performed in duplicates. […]

[3] = test system: microglial cells; experiment: Viability of LPS-activated microglial cells (MTT); format: cell-based, rat; settings: MTT 20 hr later
Protocol: Microglial cells were activated with LPS in the presence or absence of different concentrations of 3,5,4′-trihydroxy-6,7,3′-trimethoxyflavone. Cell viability was determined (using MTT) 20 hr later.

| SMILES | cytotoxic effect in activated microglial cells [1] | effect on cytokine secretion (IL-2, IFNγ, TNF-α, IL-10, IL-12, IL-6) [2] | cytotoxicity to microglial cells [3] |
| --- | --- | --- | --- |
| C=C1CCC2=C(CO)C(=O)O[C@H]2/C=C(\C)[C@H](OC(C)=O)CC1=O [achillolide A] | without a significant cytotoxic effect | Downregulates |  |
| COc1cc(-c2oc3cc(OC)c(OC)c(O)c3c(=O)c2O)ccc1O [TTF, 3,5,4′-trihydroxy-6,7,3′-trimethoxyflavone] |  |  | not cytotoxic |
